Reference: patent publication US5444174A, “16-membered macrolide derivative having sustained antibacterial activity in plasma, synthesis intermediate thereof and process for producing the same” (Meiji Seika Kaisha, Ltd., priority 1992, dated 1995)
Values after ≈ are worked out from the molar mass of the structure shown. Where two headings read alike, the source gives them in different places.

Experiments:
Assay type in all cases: cell-based
[1] = system: H. influenza 9334; assay: Antibacterial activity (MIC), agar plate dilution method; conditions: 37° C., 20 hours, blood agar seed culture
Method: (§1) Antibacterial activities of the compounds of formula (I) are shown in Table 1 in terms of minimum inhibitory concentration (MIC).
(§2) Minimum inhibitory concentration was determined by the agar plate dilution method. Test strains were subjected to seed culture using Sensitivity test broth (STB, Nissui Pharmaceutical) except that the strains belonging to the genus Streptococcus, Branhamella and Haemophilus were cultured on blood agar plate. A 5 μl portion of cell suspension of the test strains having about 10^6 CFU/ml was inoculated into Sensitivity disk agar (SDA, Nissui Pharmaceutical) supplemented with 5% horse blood and incubated at 37° C. for 20 hours. Then, MIC was measured.

[2] = system: B. catarrhalis W-0500; assay: as above; conditions: Moraxella catarrhalis, read-out: Antibacterial activity (MIC)
Method: as §1, §2

[3] = system: Sta. aureus M126; assay: as above; conditions: Staphylococcus aureus, 37° C., 20 hours
Method: as §1, §2

[4] = system: M. luteus ATCC 9341; assay: as above; conditions: Micrococcus luteus, ATCC9341, 37° C., 20 hours
Method: as §1, §2

[5] = system: Sta. aureus MS15009/pMS99; assay: as above; conditions: Staphylococcus aureus, MS15009/PMS99, 20 h, read-out: Antibacterial activity (MIC)
Method: as §1, §2

[6] = system: Ent. faecalis W-73; assay: as above; conditions: Enterococcus faecalis, W73, 37° C., 20 hours
Method: as §1, §2

[7] = system: S. Pyogenes Cook; assay: as above; conditions: Streptococcus pyogenes, 37° C., 20 hours, blood agar seed culture
Method: as §1, §2

[8] = system: E. coli NIHJ JC-2; assay: as above; conditions: Escherichia coli, NIHJJC2, 37° C., 20 hours
Method: as §1, §2

[9] = system: S. pneumoniae Type 1; assay: as above; conditions: Streptococcus pneumoniae, TYPE1, 37° C., 20 hours, blood agar seed culture
Method: as §1, §2

[10] = system: Sta. aureus MS15027; assay: as above; conditions: Staphylococcus aureus, read-out: Antibacterial activity (MIC)
Method: as §1, §2

[11] = system: K. pneumoniae PC1602; assay: as above; conditions: Klebsiella pneumoniae, 37° C., 20 hours
Method: as §1, §2

[12] = system: Sta. aureus M133; assay: as above; conditions: Staphylococcus aureus, read-out: Antibacterial activity (MIC)
Method: as §1, §2

[13] = system: S. pneumoniae IP692; assay: as above; conditions: Streptococcus pneumoniae, 37° C., 20 hours, blood agar seed culture
Method: as §1, §2

[14] = system: B. catarrhalis W-0506; assay: as above; conditions: Moraxella catarrhalis, read-out: Antibacterial activity (MIC)
Method: as §1, §2

[15] = system: Sta. aureus MS15026; assay: as above; conditions: Staphylococcus aureus, 37° C., 20 hours
Method: as §1, §2

[16] = system: Sta. epidermidis ATCC 14990; assay: as above; conditions: Staphylococcus epidermidis, read-out: Antibacterial activity (MIC)
Method: as §1, §2

[17] = system: Sta. aureus 209P JC-1; assay: as above; conditions: Staphylococcus aureus, 37° C., 20 hours
Method: as §1, §2

[18] = system: Sta. aureus MS15009/pMS98; assay: as above; conditions: Staphylococcus aureus, MS15009/PMS98, 20 h, read-out: Antibacterial activity (MIC)
Method: as §1, §2

[19] = system: gram-positive bacteria; assay: Antibacterial activities against gram-positive bacteria (summary of Table 1); conditions: in words, vs miokamycin
Method: as §1, §2

[20] = W0500, 37° C., 20 hours, blood agar seed culture, B. catarrhalis W-0500
[21] = 37° C., 20 hours, Sta. aureus MS15027
[22] = 37° C., 20 hours, Sta. aureus M133
[23] = W0506, 37° C., 20 hours, blood agar seed culture, B. catarrhalis W-0506
[24] = ATCC14990, 37° C., 20 hours, Sta. epidermidis ATCC 14990

SMILES	MIC [1]	MIC [2, 20]	MIC [3]	MIC [4]	MIC [5]	MIC [6]	MIC [7]	MIC [8]	MIC [9]	MIC [10, 21]	MIC [11]	MIC [12, 22]	MIC [13]	MIC [14, 23]	MIC [15]	MIC [16, 24]	MIC [17]	MIC [18]	MIC ([2]; W0500, 20 h)	MIC ([10]; MS15027, 20 h)	further results
CCCCO[C@H]1[C@H](C)O[C@@H](O[C@H]2[C@H](N(C)C)[C@@H](O)[C@H](O[C@H]3[C@@H](CC=O)C[C@@H](C)C(=O)/C=C/C=C/C[C@@H](C)OC(=O)C[C@@H](OC(=O)CC)[C@@H]3OC)O[C@@H]2C)C[C@@]1(C)OC [Compound (41)]	6.25 µg/mL (≈ 7.57 µM)	0.78 µg/mL (≈ 0.944 µM)	> 100 µg/mL	0.05 µg/mL (≈ 0.0605 µM)	> 100 µg/mL	3.13 µg/mL (≈ 3.79 µM)	0.1 µg/mL (≈ 0.121 µM)	> 100 µg/mL	0.2 µg/mL (≈ 0.242 µM)	0.78 µg/mL (≈ 0.944 µM)	> 100 µg/mL	0.78 µg/mL (≈ 0.944 µM)	0.1 µg/mL (≈ 0.121 µM)	0.78 µg/mL (≈ 0.944 µM)	> 100 µg/mL	1.56 µg/mL (≈ 1.89 µM)	0.2 µg/mL (≈ 0.242 µM)	0.39 µg/mL (≈ 0.472 µM)	–	–	antibacterial activities compared with miokamycin [19]: excellent antibacterial activities exceeding that of miokamycin
C=CCO[C@H]1[C@H](C)O[C@@H](O[C@H]2[C@H](N(C)C)[C@@H](O)[C@H](O[C@H]3[C@@H](CC=O)C[C@@H](C)C(=O)/C=C/C=C/C[C@@H](C)OC(=O)C[C@@H](OC(=O)CC)[C@@H]3OC)O[C@@H]2C)C[C@@]1(C)OC [Compound (39)]	–	–	> 100 µg/mL	0.39 µg/mL (≈ 0.481 µM)	> 100 µg/mL	6.25 µg/mL (≈ 7.72 µM)	1.56 µg/mL (≈ 1.93 µM)	> 100 µg/mL	1.56 µg/mL (≈ 1.93 µM)	–	> 100 µg/mL	–	1.56 µg/mL (≈ 1.93 µM)	6.25 µg/mL (≈ 7.72 µM)	> 100 µg/mL	25 µg/mL (≈ 30.9 µM)	3.13 µg/mL (≈ 3.86 µM)	12.5 µg/mL (≈ 15.4 µM)	12.5 µg/mL (≈ 15.4 µM)	12.5 µg/mL (≈ 15.4 µM)	MIC ([12]; M133, 20 h): 12.5 µg/mL (≈ 15.4 µM)
CCC(=O)O[C@@H]1CC(=O)O[C@H](C)C/C=C/C=C/C(=O)[C@H](C)C[C@H](CC=O)[C@H](O[C@@H]2O[C@H](C)[C@@H](O[C@H]3C[C@@](C)(OC)[C@@H](OCc4ccccc4)[C@H](C)O3)[C@H](N(C)C)[C@H]2O)[C@H]1OC [Compound (44)]	6.25 µg/mL (≈ 7.27 µM)	1.56 µg/mL (≈ 1.81 µM)	> 100 µg/mL	0.1 µg/mL (≈ 0.116 µM)	> 100 µg/mL	1.56 µg/mL (≈ 1.81 µM)	0.2 µg/mL (≈ 0.233 µM)	> 100 µg/mL	0.2 µg/mL (≈ 0.233 µM)	1.56 µg/mL (≈ 1.81 µM)	> 100 µg/mL	1.56 µg/mL (≈ 1.81 µM)	0.2 µg/mL (≈ 0.233 µM)	1.56 µg/mL (≈ 1.81 µM)	> 100 µg/mL	3.13 µg/mL (≈ 3.64 µM)	0.2 µg/mL (≈ 0.233 µM)	0.78 µg/mL (≈ 0.907 µM)	–	–	–
CCCCCCO[C@H]1[C@H](C)O[C@@H](O[C@H]2[C@H](N(C)C)[C@@H](O)[C@H](O[C@H]3[C@@H](CC=O)C[C@@H](C)C(=O)/C=C/C=C/C[C@@H](C)OC(=O)C[C@@H](OC(=O)CC)[C@@H]3OC)O[C@@H]2C)C[C@@]1(C)OC [Compound (42)]	12.5 µg/mL (≈ 14.6 µM)	–	> 100 µg/mL	0.1 µg/mL (≈ 0.117 µM)	> 100 µg/mL	6.25 µg/mL (≈ 7.32 µM)	0.2 µg/mL (≈ 0.234 µM)	> 100 µg/mL	0.2 µg/mL (≈ 0.234 µM)	–	> 100 µg/mL	–	0.2 µg/mL (≈ 0.234 µM)	–	> 100 µg/mL	–	0.78 µg/mL (≈ 0.913 µM)	1.56 µg/mL (≈ 1.83 µM)	1.56 µg/mL (≈ 1.83 µM)	1.56 µg/mL (≈ 1.83 µM)	MIC ([12]; M133, 20 h): 1.56 µg/mL (≈ 1.83 µM); MIC ([14]; W0506, 20 h): 1.56 µg/mL (≈ 1.83 µM); MIC ([16]; ATCC14990, 20 h): 1.56 µg/mL (≈ 1.83 µM)
